Assay results reported in patent US8048869B2, “Pharmaceutical composition for use in hormone replacement therapy” (Pantarhei Bioscience B.V., priority 2001, dated 2011).

Experiments:
[1] = biological target: T1, human sex Hormone Binding Globulin (SHBG) (Homo sapiens, UniProt P04278); experiment: Competitive steroid-binding assay, SHBG; conditions: [3H]DHT or [3H]estradiol as labeled ligands (FIG. 6)
T1 construct: Human SHBG was purified from transgenic mouse serum, as described previously; from tissue; host or cells: serum of mice transgenic for human SHBG
T1 sequence (P04278 30-402): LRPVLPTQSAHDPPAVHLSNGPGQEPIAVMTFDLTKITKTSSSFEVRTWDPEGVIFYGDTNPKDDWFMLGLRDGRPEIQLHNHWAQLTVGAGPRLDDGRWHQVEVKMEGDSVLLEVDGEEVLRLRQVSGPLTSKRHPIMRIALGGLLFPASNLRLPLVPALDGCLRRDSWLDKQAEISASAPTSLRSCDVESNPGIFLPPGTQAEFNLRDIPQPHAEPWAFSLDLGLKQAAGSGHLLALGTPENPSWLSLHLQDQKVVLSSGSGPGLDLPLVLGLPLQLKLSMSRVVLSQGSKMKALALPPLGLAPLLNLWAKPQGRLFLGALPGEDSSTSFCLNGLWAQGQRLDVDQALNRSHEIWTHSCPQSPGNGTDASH
Method: Human SHBG was treated for 30 min at room temperature with a dextran-coated charcoal (DCC) suspension in phosphate buffered saline (PBS) to remove any steroid ligand. After centrifugation (2,000×g for 10 min) to sediment the DCC, the supernatant containing the human SHBG was diluted in PBS to a concentration of 1 nM based on its steroid binding capacity.
After incubation for 1 h at room temperature the. reaction mixtures were placed in an ice bath for a further 15 muin. […] The average amounts of [^3H]labeled ligands bound to SHBG at each concentration of competitor (B) were expressed as a percentage of the average amounts of [^3H]labeled ligands bound to SHBG in the absence of competitor (B0), and were plotted against the concentration of competitor in each assay tube.

OVX-rats [2] = experiment: pQCT densitometry of proximal tibiae, ovariectomized aged rat osteoporosis model; type: in vivo; conditions: po, 0.1 mg/kg/day, 4 weeks, proximal tibiae
Method: (§1) The ovariectomized aged rat was used as a model for the human disease osteoporosis. This is an established animal model, recommended by the United States Food and Drug Administration (FDA), to evaluate and assess potential agents for osteoporosis prevention and therapy. The anti-resorptive efficacy of estetrol (E4) was tested by ex vivo measuring total and trabecular bone mineral density and bone strength after 4 weeks of treatment at necropsy. 17α-ethinyl-estradiol (EE) and vehicle (1% ethanol/arachidis oil) served as controls in this bioassay.
(§2) Three months old female Sprague-Dawley rats were either sham-operated (Sham) or ovariectomized (OVX) one day prior to commencement of the dosing study. Animals were anesthetized using a ketamine/xylazine anesthetic mixture and underwent a bilateral ovariectomy or were sham-treated. A section of hair on the dorsal surface was shaved and an incision made overlying the lumbar region of the spine. The skin was separated from the underlying fascia so that a second incision could be made through the abdominal musculature approximately caudal to the kidneys. The ovaries were then exteriorized and removed and the musculature was closed with a single suture. The skin incision was closed using surgical staples.
Ten animals per treatment group were orally dosed once per day for four consecutive weeks. […] Vehicle control was daily administered to one group of OVX-animals and sham-operated rats. After treatment, anesthetized rats were subjected to cardiac puncture and asphyxiated by CO2 inhalation. Tibiae and femura were removed, cleaned of soft-tissue and fixed and stored in 70% ethanol/saline at 4° C. (tibia) or saline at 4° C. (femura) until fuirther analysis.
Ex vivo peripheral Quantitative Computed Tomography (pQCT) was performed on the excised left tibiae using a Stratec XCT-RM and associated software (Stratec Medizintechnik GmbH, Pforzheim; Germany, software version 5.40). The scans were performed at 12% of the total length from the proximal end of the tibiae. The positions were verified using scout views and one 0.5-mm slice perpendicular to the long axis of the tibial shaft was acquired from each site. The scans were analyzed using a threshold for delineation of the external boundary. The total and trabecular bone mineral content, area and density at each site were determined. Furthermore, pQCT data for mean total bone mineral density are depicted in FIG. 1.

OVX-rats [3] = experiment: Indentation test of distal femur (bone biomechanical strength), OVX rat; type: in vivo; conditions: po, 0.1 mg/kg/day, 4 weeks, distal femur
Method: as §1, §2
Ten animals per treatment group were orally dosed once per day for four consecutive weeks. The dosing commenced 1 day after surgical removal of the ovaries and was administered by oral gavage using a syringe and stainless steel gavage needle at doses of 0.1 mg/kg /day EE, or either 2.5, 0.5 or 0.1 mg/kg/day E4. Vehicle control was daily administered to one group of OVX-animals and sham-operated rats. After treatment, anesthetized rats were subjected to cardiac puncture and asphyxiated by CO2 inhalation. Tibiae and femura were removed, cleaned of soft-tissue and fixed and stored in 70% ethanol/saline at 4° C. (tibia) or saline at 4° C. (femura) until fuirther analysis.
Ex vivo evaluation of bone biomechanical strength was performed with an indentation test at the distal femura. Prior to mechanical testing femura were rinsed in cold saline and carefully cleaned of any remaining adherent soft tissue. A 3-mm segment of the distal femoral metaphysis was cut directly proximal to the femoral condyle with a low-speed diamond saw under constant saline irrigation. The load was applied with a cylindrical indenter (with a flat testing face of 1.6 mm diameter) to the center of marrow cavity on the distal face of the segment. The indenter was allowed to penetrate the cavity at a constant displacement of 6 mm/min to a depth of 2 mm before load reversal.
The maximum load, stiffness and energy absorbed were determined from load displacement curves. Ultimate strength was calculated by dividing the maximum load by the indenter area. Furthermore, mean ultimate strength values are depicted in FIG. 2. […] Reductions in maximum load, stiffness, energy and ultimate strength were −68%, −68%, −27% and −68%, respectively, clearly accompanying the bone mineral density loss in estrogen deficient rats.

| SMILES | relative binding affinity for human SHBG [1] | Mean Total Bone Mineral Area (OVX-rats [2]) | Mean Total Bone Mineral Content (OVX-rats [2]) | Mean Total Bone Mineral Density (OVX-rats [2]) | Mean Trabecular Bone Mineral Area (OVX-rats [2]) | Mean Trabecular Bone Mineral Content (OVX-rats [2]) | Mean Trabecular Bone Mineral Density (OVX-rats [2]) | Energy (OVX-rats [3]) | Maximum load (OVX-rats [3]) | Stiffness (OVX-rats [3]) | Ultimate strength (OVX-rats [3]) |
| --- | --- | --- | --- | --- | --- | --- | --- | --- | --- | --- | --- |
| C[C@]12CCC(=O)C[C@@H]1CC[C@@H]1[C@@H]2CC[C@]2(C)[C@@H](O)CC[C@@H]12 [5α-dihydrotestosterone] | in this order, show an increased relative binding affinity | – | – | – | – | – | – | – | – | – | – |
| C#C[C@]1(O)CC[C@H]2[C@@H]3CCc4cc(O)ccc4[C@H]3CC[C@@]21C [EE, 17α-ethinyl estradiol, reference compound] | – | 13.87 mm^2 | 9.66 mg/mm | 697.48 mg/mL | 6.24 mm^2 | 1.81 mg/mm | 290.16 mg/mL | 0.53 mJ | 9.05 N | 169.12 N/mm | 4.80 N/mm2 |
| C[C@]12CC[C@H]3[C@@H](CCC4=CC(=O)CC[C@@]43C)[C@@H]1CC[C@@H]2O [testosterone] | in this order, show an increased relative binding affinity | – | – | – | – | – | – | – | – | – | – |
